The experiment concerns the target T1, BRD4 proteins (Homo sapiens, UniProt O60885).
T1 construct: endogenous in cells; host or cells: MM.1S
Nature of the experiment: Degradation of BRD4 protein in MM.1S cell lines (Western blot densitometry). The class given is cell-based. The following applies: MM.1S cells, 10 μM, 24 hours. As to the method:
To confirm that the compounds (BRD4 degraders) of Preparation Examples I′ to IV′ reduce the amount of BRD4 proteins, experiments were performed using MM.1S cell lines, which are B cells derived from the blood of multiple myeloma patients.
Specifically, the MM.1S cells were cultured in RPMI-1640 medium supplemented with 10% fetal bovine serum and Penicillin/Streptomycin (100 U/mL), transferred to a 6-well plate, and after 24 hours, the BRD4 degraders were diluted in the culture medium and the cells were treated with 10 μM each. After treatment, the cells were incubated in a C02 incubator for 24 hours. Through protein immunoblotting (Western Blot), the degrading capacity of each compound against BRD4 proteins in cells was confirmed. After cell culture was completed according to the experimental conditions, the cells were collected and centrifuged at 1,800 rpm for 3 minutes. The cells in the precipitate were lysed with RIPA (25 mM Tris-HCl pH 7.6, 150 mM NaCl, 1% NP-40, 1% sodium deoxycholate, 0.1% SDS, 1× Protease Inhibitor Cocktail), 5× sample buffer was added, and then heated at 100° C. for 15 minutes. The prepared sample was electrophoresed with sodium dodecyl sulfate poly acrylamide gel electrophoresis (SDS-PAGE), and then the proteins in the gel were transferred to a PVDF membrane using Trans-Blot Turbo. The membrane was treated with a 5% bovine serum albumin (BSA) solution and blocked at room temperature for 2 hours, and then BRD4 and R-actin antibodies were diluted in the 5% BSA solution to react with the membrane at 4° C. overnight. After washed with PBST (0.5% Tween20) 5 times, horse radish peroxidase (HRP)-conjugated secondary antibodies were diluted in PBST to react at room temperature for 2 hours, and then washed again with a PBST solution 5 times. After enzyme-substrate reaction was carried out using a HRP substrate, a signal was measured with chemi-doc equipment, and the densitometry of a band corresponding to the BRD4 protein detected in the Preparation Example Compounds was quantitatively analyzed. The case when the degrading capacity of each BRD4 degrader was reduced by less than 40% is indicated as +, the case when the degrading capacity was reduced by 40% to 70% (exclusive of 70) is indicated as ++, the case when the degrading capacity was reduced by 70% or more is indicated as +++ in Tables 16 to 19 below. As shown in the following Tables, it was confirmed that the compounds of Preparation Examples I′ to IV′ according to the present invention have excellent degrading capacity.
(In general: A western blot detects proteins with antibodies after separation by electrophoresis.)

As for `COC(=O)c1cc(NC(=O)CCNC(=O)C[C@@H]2N=C(c3ccc(Cl)cc3)c3c(sc(C)c3C)-n3c(C)nnc32)ccc1C#CCN.Cl` [4-126′, methyl (S)-2-(3-aminoprop-1-yn-1-yl)-5-(3-(2-(4-(4-chlorophenyl)-2,3,9-trimethyl-6H-thieno[3,2-f][1,2,4]triazolo[4,3-a][1,4]diazepin-6-yl)acetamido)propanamido)benzoate hydrochloride], the “BRD4 degrading capacity (%)” value is “++ (the degrading capacity was reduced by 40% to 70% (exclusive of 70))”.

With `Cc1sc2c(c1C)C(c1ccc(Cl)cc1)=N[C@@H](CC(=O)NCC#Cc1ccc(C#CCN)cc1)c1nnc(C)n1-2.Cl` [4-128′], the “BRD4 degrading capacity (%)” value is listed as “++ (the degrading capacity was reduced by 40% to 70% (exclusive of 70))”.

As for `Cc1sc2c(c1C)C(c1ccc(Cl)cc1)=N[C@@H](CC(=O)NCC#Cc1cccc(C#CCN)c1)c1nnc(C)n1-2.Cl` [4-129′, (S)—N-(3-(3-(3-aminoprop-1-yn-1-yl)phenyl)prop-2-yn-1-yl)-2-(4-(4-chlorophenyl)-2,3,9-trimethyl-6H-thieno[3,2-f][1,2,4]triazolo[4,3-a][1,4]diazepin-6-yl)acetamide hydrochloride], the “BRD4 degrading capacity (%)” value was “+++ (the degrading capacity was reduced by 70% or more)”.

Regarding `Cc1sc2c(c1C)C(c1ccc(Cl)cc1)=N[C@@H](CC(=O)NCCC#Cc1ccc(C#CCCN)o1)c1nnc(C)n1-2.Cl` [4-147′, (S)—N-(4-(5-(4-aminobut-1-yn-1-yl)furan-2-yl)but-3-yn-1-yl)-2-(4-(4-chlorophenyl)-2,3,9-trimethyl-6H-thieno[3,2-f][1,2,4]triazolo[4,3-a][1,4]diazepin-6-yl)acetamide hydrochloride], the “BRD4 degrading capacity (%)” value is “++ (the degrading capacity was reduced by 40% to 70% (exclusive of 70))”.

In the case of `Cc1sc2c(c1C)C(c1ccc(Cl)cc1)=N[C@@H](CC(=O)NCC#CCNC(=O)c1ccc(C#CCN)o1)c1nnc(C)n1-2.Cl` [4-148′, (S)-5-(3-aminoprop-1-yn-1-yl)-N-(4-(2-(4-(4-chlorophenyl)-2,3,9-trimethyl-6H-thieno[3,2-f][1,2,4]triazolo[4,3-a][1,4]diazepin-6-yl)acetamido)but-2-yn-1-yl)furan-2-carboxamide hydrochloride], the “BRD4 degrading capacity (%)” value is listed as “+ (the degrading capacity of each BRD4 degrader was reduced by less than 40%)”.

Consider `Cc1sc2c(c1C)C(c1ccc(Cl)cc1)=N[C@@H](CC(=O)NCCCCNC(=O)c1ccc(C#CCN)o1)c1nnc(C)n1-2.Cl` [4-149′], for which the “BRD4 degrading capacity (%)” value is listed as “+++ (the degrading capacity was reduced by 70% or more)”.

As to `Cc1sc2c(c1C)C(c1ccc(Cl)cc1)=N[C@@H](CC(=O)NCCC(=O)Nc1cccc(C#CCN)c1)c1nnc(C)n1-2.Cl` [4-161′, (S)—N-(3-(3-aminoprop-1-yn-1-yl)phenyl)-3-(2-(4-(4-chlorophenyl)-2,3,9-trimethyl-6H-thieno[3,2-f][1,2,4]triazolo[4,3-a][1,4]diazepin-6-yl)acetamido)propanamide hydrochloride], the “BRD4 degrading capacity (%)” value is “+++ (the degrading capacity was reduced by 70% or more)”.

Turning to `Cc1sc2c(c1C)C(c1ccc(Cl)cc1)=N[C@@H](CC(=O)NCCCC(=O)Nc1ccc(C#CCN)cc1)c1nnc(C)n1-2.Cl` [4-162′, (S)—N-(4-(3-aminoprop-1-yn-1-yl)phenyl)-4-(2-(4-(4-chlorophenyl)-2,3,9-trimethyl-6H-thieno[3,2-f][1,2,4]triazolo[4,3-a][1,4]diazepin-6-yl)acetamido)butanamide hydrochloride], the “BRD4 degrading capacity (%)” value is “+++ (the degrading capacity was reduced by 70% or more)”.

Regarding `Cc1sc2c(c1C)C(c1ccc(Cl)cc1)=N[C@@H](CC(=O)NCCCCC(=O)Nc1ccc(C#CCN)cc1)c1nnc(C)n1-2.Cl` [4-163′, (S)—N-(4-(3-aminoprop-1-yn-1-yl)phenyl)-5-(2-(4-(4-chlorophenyl)-2,3,9-trimethyl-6H-thieno[3,2-f][1,2,4]triazolo[4,3-a][1,4]diazepin-6-yl)acetamido)pentanamide hydrochloride], the “BRD4 degrading capacity (%)” value was “+++ (the degrading capacity was reduced by 70% or more)”.

The record behind these values is patent publication US20240425517A1, “NOVEL COMPOUND FOR DEGRADATION OF TARGET PROTEIN OR POLYPEPTIDE BY POLYUBIQUITINATION” (PRAZER THERAPEUTICS INC., priority 2021, published 2024).
